From patent publication US10471046B2, “Method for treating, preventing, or reducing the risk of skin infection” (Melinta Subsidiary Corp., priority 2014, dated 2019) come the findings set out here.

The test system of the assay is S. aureus. The experiment in a line: Minimum inhibitory concentrations (MICs) for S. aureus of exemplary compounds (Table 2). It counts as cell-based. The settings on record: Staphylococcus aureus, minimum inhibitory concentrations for S. aureus; read-out: MICs. Summed up: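 MICs (μg/mL) against S. aureus come from microtiter-tray dilution susceptibility testing per NCCLS M7-A5, comparing growth with and without compound.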

Values after ≈ are worked out from the molar mass of the structure shown.

As for `COc1ccc(CNCc2ccc(-c3ccc(N4C[C@H](CNC(C)=O)OC4=O)cc3F)cc2)cn1` [Compound 4054, N-[3-(2-Fluoro-4′-{[(6-methoxy-pyridin-3-ylmethyl)-amino]-methyl}-biphenyl-4-yl)-2-oxo-oxazolidin-5-(S)-ylmethyl]-acetamide], the MIC came out at 1 µg/mL (≈ 2.09 µM).
The result for `COc1ccc(CN(C)Cc2ccc(-c3ccc(N4C[C@H](CNC(C)=O)OC4=O)cc3F)cc2)cn1` [Compound 4055, N-[3-(2-Fluoro-4′-{[(6-methoxy-pyridin-3-ylmethyl)-methyl-amino]-methyl}-biphenyl-4-yl)-2-oxo-oxazolidin-5-(S)-ylmethyl]-acetamide] reads 2 µg/mL (≈ 4.06 µM).
The result for `CC(=O)NC[C@H]1CN(c2ccc(-c3ccc(CNCc4c(C)[nH]c(=O)[nH]c4=O)cc3)c(F)c2)C(=O)O1` [Compound 4057, N-[3-(2-Fluoro-4′-{[(6-methyl-2,4-dioxo-1,2,3,4-tetrahydro-pyrimidin-5-ylmethyl)-amino]-methyl}-biphenyl-4-yl)-2-oxo-oxazolidin-5-(S)-ylmethyl]-acetamide] reads 16 µg/mL (≈ 32.3 µM); that for `CC(=O)NC[C@H]1CN(c2ccc(-c3ccc(CNCc4cccn4C)cc3)c(F)c2)C(=O)O1` [Compound 4059, N-[3-(2-Fluoro-4′-{[(1-methyl-1H-pyrrol-2-ylmethyl)-amino]-methyl}-biphenyl-4-yl)-2-oxo-oxazolidin-5-(S)-ylmethyl]-acetamide], 2 µg/mL (≈ 4.44 µM); that for `CC(=O)NC[C@H]1CN(c2ccc(-c3ccc(CNCc4cncc5ccccc45)cc3)c(F)c2)C(=O)O1` [Compound 4060, N-[3-(2-Fluoro-4′-{[(isoquinolin-4-ylmethyl)-amino]-methyl}-biphenyl-4-yl)-2-oxo-oxazolidin-5-(S)-ylmethyl]-acetamide], 2 µg/mL (≈ 4.01 µM).
As to `CC(=O)NC[C@H]1CN(c2ccc(-c3ccc(CN(C)Cc4ccoc4)cc3)c(F)c2)C(=O)O1` [Compound 4061, N-(3-{2-Fluoro-4′-[(furan-3-ylmethyl-methyl-amino)-methyl]-biphenyl-4-yl}-2-oxo-oxazolidin-5-(S)-ylmethyl)-acetamide], the MIC was 4 µg/mL (≈ 8.86 µM).
Turning to `CC(=O)NC[C@H]1CN(c2ccc(-c3ccc(CNCc4ccc(N(C)C)cc4)cc3)c(F)c2)C(=O)O1` [Compound 4062, N-(3-{4′-[(4-Dimethylamino-benzylamino)-methyl]-2-fluoro-biphenyl-4-yl}-2-oxo-oxazolidin-5-(S)-ylmethyl)-acetamide], the MIC came to 2 µg/mL (≈ 4.08 µM).
Under `CC(=O)NC[C@H]1CN(c2ccc(-c3ccc(CNCc4ccc(Cl)cc4)cc3)c(F)c2)C(=O)O1` [Compound 4063, N-(3-{4′-[(4-Chloro-benzylamino)-methyl]-2-fluoro-biphenyl-4-yl}-2-oxo-oxazolidin-5-(S)-ylmethyl)-acetamide] stands 2 µg/mL (≈ 4.15 µM); under `CC(=O)NC[C@H]1CN(c2ccc(-c3ccc(CNCc4ccc(Cl)cc4Cl)cc3)c(F)c2)C(=O)O1` [Compound 4064, N-(3-{4′-[(2,4-Dichloro-benzylamino)-methyl]-2-fluoro-biphenyl-4-yl}-2-oxo-oxazolidin-5-(S)-ylmethyl)-acetamide], 2 µg/mL (≈ 3.87 µM).
Under `CC(=O)NC[C@H]1CN(c2ccc(-c3ccc(CNCc4cccc5cnccc45)cc3)c(F)c2)C(=O)O1` [Compound 4065, N-[3-(2-Fluoro-4′-{[(isoquinolin-5-ylmethyl)-amino]-methyl}-biphenyl-4-yl)-2-oxo-oxazolidin-5-(S)-ylmethyl]-acetamide] stands 2 µg/mL (≈ 4.01 µM); under `CC(=O)NC[C@H]1CN(c2ccc(-c3ccc(CNCc4cnc[nH]4)cc3)c(F)c2)C(=O)O1` [Compound 4066, N-[3-(2-Fluoro-4′-{[(3H-imidazol-4-ylmethyl)-amino]-methyl}-biphenyl-4-yl)-2-oxo-oxazolidin-5-(S)-ylmethyl]-acetamide], 8 µg/mL (≈ 18.3 µM); under `CC(=O)NC[C@H]1CN(c2ccc(-c3ccc(CN(C)Cc4cnc[nH]4)cc3)c(F)c2)C(=O)O1` [Compound 4067, N-[3-(2-Fluoro-4′-{[(3H-imidazol-4-ylmethyl)-methyl-amino]-methyl}-biphenyl-4-yl)-2-oxo-oxazolidin-5-(S)-ylmethyl]-acetamide], 4 µg/mL (≈ 8.86 µM).
Under `CC(=O)NC[C@H]1CN(c2ccc(-c3ccc(CN(Cc4c[nH]cn4)Cc4cnc[nH]4)cc3)c(F)c2)C(=O)O1` [Compound 4068, N-[3-(2-Fluoro-4′-{[(1H-imidazol-4-ylmethyl)-(3H-imidazol-4-ylmethyl)-amino]-methyl}-biphenyl-4-yl)-2-oxo-oxazolidin-5-(S)-ylmethyl]-acetamide] stands 128 µg/mL (≈ 247 µM).
On to `CC(=O)NC[C@H]1CN(c2ccc(-c3ccc(CNCc4ccc([N+](=O)[O-])o4)cc3)c(F)c2)C(=O)O1` [Compound 4069, N-[3-(2-Fluoro-4′-{[(5-nitro-furan-2-ylmethyl)-amino]-methyl}-biphenyl-4-yl)-2-oxo-oxazolidin-5-(S)-ylmethyl]-acetamide], for which the MIC stood at 1 µg/mL (≈ 2.07 µM).
For the compound `CC(=O)NC[C@H]1CN(c2ccc(-c3ccc(CNCc4cccc(C#N)c4)cc3)c(F)c2)C(=O)O1` [Compound 4070, N-(3-{4′-[(3-Cyano-benzylamino)-methyl]-2-fluoro-biphenyl-4-yl}-2-oxo-oxazolidin-5-(S)-ylmethyl)-acetamide], the MIC worked out at 1 µg/mL (≈ 2.12 µM).
As to `CC(=O)NC[C@H]1CN(c2ccc(-c3ccc(CNCc4ccc5ncccc5c4)cc3)c(F)c2)C(=O)O1` [Compound 4071, N-[3-(2-Fluoro-4′-{[(quinolin-6-ylmethyl)-amino]-methyl}-biphenyl-4-yl)-2-oxo-oxazolidin-5-(S)-ylmethyl]-acetamide], the MIC worked out at 2 µg/mL (≈ 4.01 µM).
Under `CC(=O)NC[C@H]1CN(c2ccc(-c3ccc(CNCc4cccc(C)n4)cc3)c(F)c2)C(=O)O1` [Compound 4072, N-[3-(2-Fluoro-4′-{[(6-methyl-pyridin-2-ylmethyl)-amino]-methyl}-biphenyl-4-yl)-2-oxo-oxazolidin-5-(S)-ylmethyl]-acetamide] stands 2 µg/mL (≈ 4.32 µM).
In the case of `CC(=O)NC[C@H]1CN(c2ccc(-c3ccc(CNCc4ccncc4)nc3)c(F)c2)C(=O)O1` [Compound 4073, N-{3-[3-Fluoro-4-(6-{[(pyridin-4-ylmethyl)-amino]-methyl}-pyridin-3-yl)-phenyl]-2-oxo-oxazolidin-5-(S)-ylmethyl}-acetamide], the MIC came out at 2 µg/mL (≈ 4.45 µM).
The result for `CC(=O)NC[C@H]1CN(c2ccc(-c3ccc(CNCc4nccs4)cc3)c(F)c2)C(=O)O1` [Compound 4074, N-[3-(2-Fluoro-4′-{[(thiazol-2-ylmethyl)-amino]-methyl}-biphenyl-4-yl)-2-oxo-oxazolidin-5-(S)-ylmethyl]-acetamide] reads 1 µg/mL (≈ 2.2 µM).
Under `CC(=O)NC[C@H]1CN(c2ccc(-c3ccc(CNCc4ccc(CO)o4)cc3)c(F)c2)C(=O)O1` [Compound 4075, N-[3-(2-Fluoro-4′-{[(5-hydroxymethyl-furan-2-ylmethyl)-amino]-methyl}-biphenyl-4-yl)-2-oxo-oxazolidin-5-(S)-ylmethyl]-acetamide] stands 2 µg/mL (≈ 4.28 µM).
The result for `CC(=O)NC[C@H]1CN(c2ccc(-c3ccc(CNCc4nccn4C)cc3)c(F)c2)C(=O)O1` [Compound 4076, N-[3-(2-Fluoro-4′-{[(1-methyl-1H-imidazol-2-ylmethyl)-amino]-methyl}-biphenyl-4-yl)-2-oxo-oxazolidin-5-(S)-ylmethyl]-acetamide] reads 4 µg/mL (≈ 8.86 µM); that for `CC(=O)NC[C@H]1CN(c2ccc(-c3ccc(CNCc4csc5ccccc45)cc3)c(F)c2)C(=O)O1` [Compound 4077, N-[3-(4′-{[(Benzo[b]thiophen-3-ylmethyl)-amino]-methyl}-2-fluoro-biphenyl-4-yl)-2-oxo-oxazolidin-5-(S)-ylmethyl]-acetamide], 16 µg/mL (≈ 31.8 µM).
Take `CC(=O)NC[C@H]1CN(c2ccc(-c3ccc(CNCc4ccc(Br)o4)cc3)c(F)c2)C(=O)O1` [Compound 4078, N-[3-(4′-{[(5-Bromo-furan-2-ylmethyl)-amino]-methyl}-2-fluoro-biphenyl-4-yl)-2-oxo-oxazolidin-5-(S)-ylmethyl]-acetamide]: the MIC was 2 µg/mL (≈ 3.87 µM).
For `CC(=O)NC[C@H]1CN(c2ccc(-c3ccc(CNCCCn4ccnc4)cc3)c(F)c2)C(=O)O1` [Compound 4079, N-(3-{2-Fluoro-4′-[(3-imidazol-1-yl-propylamino)-methyl]-biphenyl-4-yl}-2-oxo-oxazolidin-5-(S)-ylmethyl)-acetamide], the MIC was 32 µg/mL (≈ 68.7 µM).
The result for `CC(=O)NC[C@H]1CN(c2ccc(-c3ccc(C(=N)NCc4ccncc4)cc3)c(F)c2)C(=O)O1` [Compound 4080, N-{3-[2-Fluoro-4′-(N-pyridin-4-ylmethyl-carbamimidoyl)-biphenyl-4-yl]-2-oxo-oxamlidin-5-(S)-ylmethyl}-acetamide] reads 128 µg/mL (≈ 277 µM); that for `CC(=O)NC[C@H]1CN(c2ccc(-c3ccc(CNCc4ccc(C)o4)cc3)c(F)c2)C(=O)O1` [Compound 4081, N-[3-(2-Fluoro-4′-{[(5-methyl-furan-2-ylmethyl)-amino]-methyl}-biphenyl-4-yl)-2-oxo-oxazolidin-5-(S)-ylmethyl]-acetamide], 2 µg/mL (≈ 4.43 µM).
In the case of `CC(=O)NC[C@H]1CN(c2ccc(-c3ccc(CNCc4[nH]cnc4C)cc3)c(F)c2)C(=O)O1` [Compound 4082, N-[3-(2-Fluoro-4′-{[(5-methyl-3H-imidazol-4-ylmethyl)-amino]-methyl}-biphenyl-4-yl)-2-oxo-oxazolidin-5-(S)-ylmethyl]-acetamide], the MIC is 32 µg/mL (≈ 70.9 µM).
Under `CC(=O)NC[C@H]1CN(c2ccc(-c3ccc(CNCc4c[nH]c5ccccc45)cc3)c(F)c2)C(=O)O1` [Compound 4083, N-[3-(2-Fluoro-4′-{[(1H-indol-3-ylmethyl)-amino]-methyl}-biphenyl-4-yl)-2-oxo-oxazolidin-5-(S)-ylmethyl]-acetamide] stands 2 µg/mL (≈ 4.11 µM); under `CC(=O)NC[C@H]1CN(c2ccc(-c3ccc(CNCc4ccc(-c5ccccc5)s4)cc3)c(F)c2)C(=O)O1` [Compound 4084, N-[3-(2-Fluoro-4′-{[(5-phenyl-thiophen-2-ylmethyl)-amino]-methyl}-biphenyl-4-yl)-2-oxo-oxazolidin-5-(S)-ylmethyl]-acetamide], 128 µg/mL (≈ 242 µM).
